Earlier results as cited in US20170326105A1, “MELATONIN-BASED NASAL COMPOSITIONS AND USES THEREOF” (The Lester Smith Medical Research Institute, LLC, priority 2016, published 2017).

Compound: COc1ccc2[nH]cc(CCNC(C)=O)c2c1 [melatonin, N-acetyl-5-methoxy tryptamine]
- time for plasma levels to return to baseline (after discontinuation of chronic dosing of less than 10 mg/day): ≤ 24 h
- estimated peak blood levels above physiological levels (doses of melatonin 5 mg): 25 times
- time after administration for blood plasma concentration to reach its peak (oral administration): over an hour
